The structures appear in SMILES notation.

For this assay, the target named is T1, BaF3 BRAF-KIAA1549 fusion cells (Homo sapiens, UniProt P15056).
T1 construct: The BRAF-KIAA1549 fusion mutant was subcloned into pMXs-IRES-Blasticidin (RTV-016, Cell Biolabs, San Diego, CA); fused on or other part: Q9HCM3 (UPF0606 protein KIAA1549)
Kind of assay: BaF3 BRAF-KIAA1549 fusion cell proliferation assay (CellTiterGlo). Type of assay: cell-based. The conditions noted are these: 96 hours incubation, potency code. The procedure:
Retroviral Production: The BRAF-KIAA1549 fusion mutant was subcloned into pMXs-IRES-Blasticidin (RTV-016, Cell Biolabs, San Diego, CA). Retrovirus was produced by transfection of HEK 293T cells with the retroviral BRAF mutant expression vector pMXs-IRES-Blasticidin (RTV-016, Cell Biolabs), pCMV-Gag-Pol vector and pCMV-VSV-G-Envelope vector. Briefly, HEK 293T cells were plated in Poly-D-lysine coated 6-well plate (2.5×10^5 cells per well) and incubated overnight. The next day, retroviral plasmids (1 μg of BRAF-KIAA fusion mutant, 0.32 μg of pCMV-Gag-Pol and 0.165 μg pCMV-VSV-G) were mixed in 300 μL of Optimem (31985, Life Technologies). The mixture was incubated at room temperature for 5 minutes and then added to Optimem containing transfection reagent Lipofectamine (11668, Invitrogen) and incubated for 20 minutes. The mixture was then added dropwise to HEK 293T cells. The next day the medium was replaced with fresh culture medium and retrovirus was harvested at 24 hours.
Generation of BRAF-KIAA1549 fusion stable cell line: BaF3 cells were plated in V-bottom 96 well plate (COSTAR #3894) in 80 μL of RPMI/10% FBS and 0.01 ng/ml mouse IL-3; supplemented with 8 μg/mL polybrene (4×10^4 cells/well). Cells were transduced with 20 μL of BRAF-KIAA1549 fusion viral supernatant by centrifuging for 30 minutes at 1000 rpm. Cells were placed in a 37° C. incubator overnight. Next day 100 μL of RPMI/10% FBS and 0.01 ng/ml mouse IL-3 was added. After 24 hours, 100 μL of cells were transferred to a 24 well plate containing 900 μL of RPMI/10% FBS and 15 μg/mL Blasticidin. Contents of the 24 well plate were sampled for cell viability via CellTiterGlo (Promega) over a 2-week period.
Assay for cell proliferation: BaF3 BRAF-KIAA1549 fusion cells were resuspended at 1.5×10^5c/mL in RPMI containing 10% Heat Inactivated FBS, 1% L-glutamine and dispensed in duplicate ([…]) into 384 well plates. To determine the effect of compound on cell proliferation, BaF3 BRAF-KIAA1549 fusion cells were incubated for 96 hours in the presence of vehicle control (DMSO) or compound at varying concentrations. Inhibition of cell growth was determined by luminescent quantification (Envision by Perkin Elmer) of intracellular ATP content using CellTiterGlo (Promega), according to the protocol provided by the manufacturer. To determine the IC50 values, the vehicle-treated cells were normalized as viable cells and analyzed using the CDD Vault, Collaborative Drug Discovery, Burlingame, CA (the Levenberg-Marquardt algorithm; Levenberg, K., […]; Marquardt, D., 1963).
Tables A1 and A2 assign each compound a code for potency in the BaF3 BRAF-KIAA1549 fusion cell proliferation assay: A, B, C, or D. According to the code, A represents an IC50 value <20 nM; B represents an IC50 value ≥20 nM and <100 nM; C represents an IC50 value ≥100 nM and <500 nM; and D represents an IC50 value ≥500 nM.
(In general: Cellular ATP, detected with luciferase, serves as a proxy for viable cell number.)

T1 sequence (P15056 whole entry, change not shown, the tested form may be a part): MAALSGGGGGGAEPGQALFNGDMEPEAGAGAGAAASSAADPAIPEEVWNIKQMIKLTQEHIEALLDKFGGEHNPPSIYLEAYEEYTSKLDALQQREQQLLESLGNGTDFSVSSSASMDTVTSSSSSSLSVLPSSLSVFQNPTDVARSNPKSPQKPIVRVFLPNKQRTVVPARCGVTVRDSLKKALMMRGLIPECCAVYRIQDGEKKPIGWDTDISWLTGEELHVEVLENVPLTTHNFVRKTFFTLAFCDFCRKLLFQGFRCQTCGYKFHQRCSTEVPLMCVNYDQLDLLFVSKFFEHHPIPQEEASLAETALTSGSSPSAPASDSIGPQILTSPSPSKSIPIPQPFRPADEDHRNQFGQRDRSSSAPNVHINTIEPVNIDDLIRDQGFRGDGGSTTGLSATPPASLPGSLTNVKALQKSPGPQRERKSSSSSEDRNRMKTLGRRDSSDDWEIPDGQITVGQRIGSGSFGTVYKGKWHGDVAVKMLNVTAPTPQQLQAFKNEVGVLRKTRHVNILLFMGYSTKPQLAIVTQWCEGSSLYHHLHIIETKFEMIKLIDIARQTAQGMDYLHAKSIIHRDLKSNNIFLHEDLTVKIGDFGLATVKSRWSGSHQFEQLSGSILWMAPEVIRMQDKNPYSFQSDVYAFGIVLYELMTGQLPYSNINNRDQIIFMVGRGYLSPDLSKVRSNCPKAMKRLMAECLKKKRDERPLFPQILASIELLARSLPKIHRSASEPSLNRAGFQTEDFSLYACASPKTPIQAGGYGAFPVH

In general, GI50 refers to the concentration that inhibits growth by half. Lower therefore signals greater sensitivity of the cells. Regarding `Cc1ncc(C(=O)Nc2cccc(C(F)(F)F)c2)cc1Nc1ncccc1-c1ncnc2[nH]cnc12` [Compound I-52, 5-((3-(9H-purin-6-yl)pyridin-2-yl)amino)-6-methyl-N-(3-(trifluoromethyl)phenyl)nicotinamide], the concentration for 50% growth inhibition (GI50) is 20 to 100 nM. Next, `Cc1c(F)cc(C(=O)Nc2cccc(C(F)(F)F)c2)cc1Nc1ncccc1-c1ncnc2[nH]cnc12` [Compound I-53, 3-((3-(9H-purin-6-yl)pyridin-2-yl)amino)-5-fluoro-4-methyl-N-(3-(trifluoromethyl)phenyl)benzamide]: 20 to 100 nM; `Cc1ncc(NC(=O)c2ccnc(C3(C#N)CC3)c2)cc1Nc1ncccc1-c1ncnc2[nH]cnc12` [Compound I-54, N-(5-(3-(9H-purin-6-yl)pyridin-2-ylamino)-6-methylpyridin-3-yl)-2-(1-cyanocyclopropyl)isonicotinamide]: 20 to 100 nM; `Cc1ccc(NC(=O)c2cc(C3CC3)ccn2)cc1Nc1ncccc1-c1ncnc2[nH]cnc12` [Compound I-55, N-(3-(3-(9H-purin-6-yl)pyridin-2-ylamino)-4-methylphenyl)-4-cyclopropylpicolinamide]: less than 20 nM.

Compound `Cc1ccc(NC(=O)c2cc(C3CC3)c(Cl)cn2)cc1Nc1ncccc1-c1ncnc2[nH]cnc12` [Compound I-56, N-(3-((3-(9H-purin-6-yl)pyridin-2-yl)amino)-4-methylphenyl)-5-chloro-4-cyclopropylpicolinamide] yielded a GI50 of no less than 500 nM. In the case of `Cc1ccc(NC(=O)c2cccc(C(C)(C)C#N)c2)nc1Nc1ncccc1-c1ncnc2[nH]cnc12` [Compound I-57, N-(6-((3-(9H-purin-6-yl)pyridin-2-yl)amino)-5-methylpyridin-2-yl)-3-(2-cyanopropan-2-yl)benzamide], the concentration for 50% growth inhibition (GI50) was no less than 500 nM. The result for `Cc1ncc(C(=O)Nc2cccc(C3(C#N)CC3)c2)cc1Nc1ncccc1-c1ncnc2[nH]cnc12` [Compound I-58, 5-((3-(9H-purin-6-yl)pyridin-2-yl)amino)-N-(3-(1-cyanocyclopropyl)phenyl)-6-methylnicotinamide] reads 20 to 100 nM; that for `Cc1ccc(NC(=O)c2ccc(C(F)(F)F)c(C#N)n2)cc1Nc1ncccc1-c1ncnc2[nH]cnc12` [Compound I-59, N-(3-((3-(9H-purin-6-yl)pyridin-2-yl)amino)-4-methylphenyl)-6-cyano-5-(trifluoromethyl)picolinamide], 100 to 500 nM. Next, `Cc1c(F)cc(C(=O)Nc2cccc(C3(C#N)CC3)c2)cc1Nc1ncccc1-c1ncnc2[nH]cnc12` [Compound I-60, 3-((3-(9H-purin-6-yl)pyridin-2-yl)amino)-N-(3-(1-cyanocyclopropyl)phenyl)-5-fluoro-4-methylbenzamide]: less than 20 nM. The result for `Cc1ncc(NC(=O)c2ccnc(C3(F)CC3)c2)cc1Nc1ncccc1-c1ncnc2[nH]cnc12` [Compound I-61, N-(5-((3-(9H-purin-6-yl)pyridin-2-yl)amino)-6-methylpyridin-3-yl)-2-(1-fluorocyclopropyl)isonicotinamide] reads 20 to 100 nM.

`Cc1c(F)cc(NC(=O)c2ccnc(C3(C#N)CC3)c2)cc1Nc1ncccc1-c1ncnc2[nH]cnc12` [Compound I-62, N-(3-((3-(9H-purin-6-yl)pyridin-2-yl)amino)-5-fluoro-4-methylphenyl)-2-(1-cyanocyclopropyl)isonicotinamide] had a 50% growth inhibitory concentration (GI50) of less than 20 nM. The result for `Cc1cc(NC(=O)c2cc(C(F)(F)F)ccn2)cc(Nc2ncccc2-c2ncnc3[nH]cnc23)c1C` [Compound I-63, N-(3-((3-(9H-purin-6-yl)pyridin-2-yl)amino)-4,5-dimethylphenyl)-4-(trifluoromethyl)picolinamide] reads 100 to 500 nM; that for `Cc1ccc(NC(=O)c2cc(C3(C#N)CCC3)ccn2)cc1Nc1ncccc1-c1ncnc2[nH]cnc12` [Compound I-64, N-(3-((3-(9H-purin-6-yl)pyridin-2-yl)amino)-4-methylphenyl)-4-(1-cyanocyclobutyl)picolinamide], less than 20 nM.

These data come from patent US20240317752A1, “6-SUBSTITUTED-9H-PURINE DERIVATIVES AND RELATED USES” (Black Diamond Therapeutics, Inc., priority 2021, published 2024).
